Test results reported in PubChem BioAssay (NCI).
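Each compound was tested at five concentrations against cells in 96-well plates for 48 hours. Definition used: TGI = concentration required for complete inhibition of growth.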

Legend:
Experiment in all cases: NCI anticancer screen, dose series, 48 h
786-0 renal = system: 786-0 renal
A498 renal = system: A498 renal
A549 NSCLC = system: A549 NSCLC
ACHN renal = system: ACHN renal
CCRF-CEM leukemia = system: CCRF-CEM leukemia
COLO 205 colon = system: COLO 205 colon
DLD-1 colon = system: DLD-1 colon
DMS 114 small cell lung = system: DMS 114 small cell lung
EKVX NSCLC = system: EKVX NSCLC
HCC-2998 colon = system: HCC-2998 colon
HCT-116 colon = system: HCT-116 colon
HCT-15 colon = system: HCT-15 colon
HL-60(TB) leukemia = system: HL-60(TB) leukemia
HOP-18 NSCLC = system: HOP-18 NSCLC
HOP-62 NSCLC = system: HOP-62 NSCLC
HOP-92 NSCLC = system: HOP-92 NSCLC
HT29 colon = system: HT29 colon
IGROV1 ovarian = system: IGROV1 ovarian
K-562 leukemia = system: K-562 leukemia
KM12 colon = system: KM12 colon
KM20L2 colon = system: KM20L2 colon
LOX IMVI melanoma = system: LOX IMVI melanoma
LXFL 529 NSCLC = system: LXFL 529 NSCLC
M14 melanoma = system: M14 melanoma
M19-MEL melanoma = system: M19-MEL melanoma
MALME-3M melanoma = system: MALME-3M melanoma
MOLT-4 leukemia = system: MOLT-4 leukemia
NCI-H226 lung = system: NCI-H226 lung
NCI-H23 lung = system: NCI-H23 lung
NCI-H460 lung = system: NCI-H460 lung
NCI-H522 lung = system: NCI-H522 lung
OVCAR-3 ovarian = system: OVCAR-3 ovarian
OVCAR-4 ovarian = system: OVCAR-4 ovarian
OVCAR-5 ovarian = system: OVCAR-5 ovarian
OVCAR-8 ovarian = system: OVCAR-8 ovarian
RPMI-8226 leukemia = system: RPMI-8226 leukemia
RXF 393 renal = system: RXF 393 renal
RXF-631 renal = system: RXF-631 renal
SF-268 CNS = system: SF-268 CNS
SF-295 CNS = system: SF-295 CNS
SF-539 CNS = system: SF-539 CNS
SK-MEL-2 melanoma = system: SK-MEL-2 melanoma
SK-MEL-28 melanoma = system: SK-MEL-28 melanoma
SK-OV-3 ovarian = system: SK-OV-3 ovarian
SN12C renal = system: SN12C renal
SNB-19 CNS = system: SNB-19 CNS
SNB-75 CNS = system: SNB-75 CNS
SNB-78 CNS = system: SNB-78 CNS
SW-620 colon = system: SW-620 colon
TK-10 renal = system: TK-10 renal
U251 CNS = system: U251 CNS
UACC-257 melanoma = system: UACC-257 melanoma
UACC-62 melanoma = system: UACC-62 melanoma
UO-31 renal = system: UO-31 renal
CAKI-1 renal = system: CAKI-1 renal
DMS 273 small cell lung = system: DMS 273 small cell lung
SK-MEL-5 melanoma = system: SK-MEL-5 melanoma
SR leukemia = system: SR leukemia

SMILES: O=C(OC1CC(n2cc(F)c(=O)[nH]c2=O)OC1CSC(=O)c1ccccc1)c1ccccc1 (stereo not given)
- TGI (786-0 renal): > 100 µM
- TGI (A498 renal): > 100 µM
- TGI (A549 NSCLC): 92.4 µM
- TGI (ACHN renal): > 100 µM
- TGI (CCRF-CEM leukemia): > 100 µM
- TGI (COLO 205 colon): 88.7 µM
- TGI (DLD-1 colon): > 100 µM
- TGI (DMS 114 small cell lung): > 100 µM
- TGI (EKVX NSCLC): 90.5 µM
- TGI (HCC-2998 colon): 75.2 µM
- TGI (HCT-116 colon): > 100 µM
- TGI (HCT-15 colon): > 100 µM
- TGI (HL-60(TB) leukemia): 53.3 µM
- TGI (HOP-18 NSCLC): 97.4 µM
- TGI (HOP-62 NSCLC): > 100 µM
- TGI (HOP-92 NSCLC): 56 µM
- TGI (HT29 colon): 34.4 µM
- TGI (IGROV1 ovarian): > 100 µM
- TGI (K-562 leukemia): > 100 µM
- TGI (KM12 colon): 91.2 µM
- TGI (KM20L2 colon): 33.9 µM
- TGI (LOX IMVI melanoma): > 100 µM
- TGI (LXFL 529 NSCLC): > 100 µM
- TGI (M14 melanoma): > 100 µM
- TGI (M19-MEL melanoma): 67 µM
- TGI (MALME-3M melanoma): 84.5 µM
- TGI (MOLT-4 leukemia): 81.1 µM
- TGI (NCI-H226 lung): 75.9 µM
- TGI (NCI-H23 lung): > 100 µM
- TGI (NCI-H460 lung): > 100 µM
- TGI (NCI-H522 lung): 87 µM
- TGI (OVCAR-3 ovarian): 53.3 µM
- TGI (OVCAR-4 ovarian): > 100 µM
- TGI (OVCAR-5 ovarian): > 100 µM
- TGI (OVCAR-8 ovarian): > 100 µM
- TGI (RPMI-8226 leukemia): 57.4 µM
- TGI (RXF 393 renal): 81.1 µM
- TGI (RXF-631 renal): 40.3 µM
- TGI (SF-268 CNS): 68.8 µM
- TGI (SF-295 CNS): > 100 µM
- TGI (SF-539 CNS): > 100 µM
- TGI (SK-MEL-2 melanoma): > 100 µM
- TGI (SK-MEL-28 melanoma): > 100 µM
- TGI (SK-OV-3 ovarian): > 100 µM
- TGI (SN12C renal): > 100 µM
- TGI (SNB-19 CNS): > 100 µM
- TGI (SNB-75 CNS): 65.6 µM
- TGI (SNB-78 CNS): > 100 µM
- TGI (SW-620 colon): > 100 µM
- TGI (TK-10 renal): > 100 µM
- TGI (U251 CNS): 49.8 µM
- TGI (UACC-257 melanoma): 87.6 µM
- TGI (UACC-62 melanoma): > 100 µM
- TGI (UO-31 renal): > 100 µM

SMILES: CN(C)Cc1cc(/C(=C(\C#N)c2ccccc2)c2ccc(O)cc2)ccc1O
- TGI (786-0 renal): 35.6 µM
- TGI (A498 renal): > 100 µM
- TGI (A549 NSCLC): > 100 µM
- TGI (ACHN renal): 32.4 µM
- TGI (CAKI-1 renal): 85.5 µM
- TGI (CCRF-CEM leukemia): 45.5 µM
- TGI (COLO 205 colon): 31.9 µM
- TGI (DLD-1 colon): 86.1 µM
- TGI (DMS 114 small cell lung): 29.4 µM
- TGI (DMS 273 small cell lung): 36.4 µM
- TGI (EKVX NSCLC): > 100 µM
- TGI (HCC-2998 colon): 32.4 µM
- TGI (HCT-116 colon): 25.2 µM
- TGI (HCT-15 colon): 96.5 µM
- TGI (HOP-18 NSCLC): 66.5 µM
- TGI (HOP-62 NSCLC): 33.9 µM
- TGI (HOP-92 NSCLC): 52.4 µM
- TGI (HT29 colon): 44.8 µM
- TGI (IGROV1 ovarian): 99.5 µM
- TGI (K-562 leukemia): 40.4 µM
- TGI (KM12 colon): 61 µM
- TGI (KM20L2 colon): > 100 µM
- TGI (LOX IMVI melanoma): 26.8 µM
- TGI (LXFL 529 NSCLC): 34.7 µM
- TGI (M14 melanoma): 23.1 µM
- TGI (M19-MEL melanoma): 31.2 µM
- TGI (MALME-3M melanoma): 29.8 µM
- TGI (MOLT-4 leukemia): 39.3 µM
- TGI (NCI-H226 lung): 56.9 µM
- TGI (NCI-H23 lung): 52.5 µM
- TGI (NCI-H460 lung): 48.9 µM
- TGI (NCI-H522 lung): 26.1 µM
- TGI (OVCAR-3 ovarian): 50.3 µM
- TGI (OVCAR-4 ovarian): 70.5 µM
- TGI (OVCAR-5 ovarian): 72.4 µM
- TGI (OVCAR-8 ovarian): 48.5 µM
- TGI (RPMI-8226 leukemia): 46.4 µM
- TGI (RXF 393 renal): 14 µM
- TGI (RXF-631 renal): 37.2 µM
- TGI (SF-268 CNS): 60.3 µM
- TGI (SF-295 CNS): 49.7 µM
- TGI (SK-MEL-2 melanoma): 33.9 µM
- TGI (SK-MEL-28 melanoma): 26.8 µM
- TGI (SK-MEL-5 melanoma): 28.9 µM
- TGI (SK-OV-3 ovarian): 87.5 µM
- TGI (SN12C renal): 59.6 µM
- TGI (SNB-19 CNS): > 100 µM
- TGI (SNB-75 CNS): 63.6 µM
- TGI (SNB-78 CNS): 94.9 µM
- TGI (SR leukemia): 31.8 µM
- TGI (SW-620 colon): 73.7 µM
- TGI (TK-10 renal): 79.4 µM
- TGI (U251 CNS): 50.1 µM
- TGI (UACC-257 melanoma): 29.9 µM
- TGI (UACC-62 melanoma): 33.4 µM
- TGI (UO-31 renal): 60.2 µM
